Results published in US10435399B2, “HDAC6 inhibitory heterocyclic compound” (TAKEDA PHARMACEUTICAL COMPANY LIMITED, priority 2017, dated 2019).

These compounds were tested against T1, HDAC6 enzyme (Homo sapiens, UniProt Q9UBN7) (assay: HDAC6 enzyme inhibitory activity (HDAC-Glo I/II Assay kit)). Details: 10 μM; wells without enzyme = 100% inhibition; read-out: HDAC6 inhibitory rate (%) (10 μM).
T1 construct: transducing full length HDAC6 gene into Sf-9 insect cells; GST; purchased SignalChem; host or cells: Sf-9 insect cells
T1 sequence (Q9UBN7 1-1215): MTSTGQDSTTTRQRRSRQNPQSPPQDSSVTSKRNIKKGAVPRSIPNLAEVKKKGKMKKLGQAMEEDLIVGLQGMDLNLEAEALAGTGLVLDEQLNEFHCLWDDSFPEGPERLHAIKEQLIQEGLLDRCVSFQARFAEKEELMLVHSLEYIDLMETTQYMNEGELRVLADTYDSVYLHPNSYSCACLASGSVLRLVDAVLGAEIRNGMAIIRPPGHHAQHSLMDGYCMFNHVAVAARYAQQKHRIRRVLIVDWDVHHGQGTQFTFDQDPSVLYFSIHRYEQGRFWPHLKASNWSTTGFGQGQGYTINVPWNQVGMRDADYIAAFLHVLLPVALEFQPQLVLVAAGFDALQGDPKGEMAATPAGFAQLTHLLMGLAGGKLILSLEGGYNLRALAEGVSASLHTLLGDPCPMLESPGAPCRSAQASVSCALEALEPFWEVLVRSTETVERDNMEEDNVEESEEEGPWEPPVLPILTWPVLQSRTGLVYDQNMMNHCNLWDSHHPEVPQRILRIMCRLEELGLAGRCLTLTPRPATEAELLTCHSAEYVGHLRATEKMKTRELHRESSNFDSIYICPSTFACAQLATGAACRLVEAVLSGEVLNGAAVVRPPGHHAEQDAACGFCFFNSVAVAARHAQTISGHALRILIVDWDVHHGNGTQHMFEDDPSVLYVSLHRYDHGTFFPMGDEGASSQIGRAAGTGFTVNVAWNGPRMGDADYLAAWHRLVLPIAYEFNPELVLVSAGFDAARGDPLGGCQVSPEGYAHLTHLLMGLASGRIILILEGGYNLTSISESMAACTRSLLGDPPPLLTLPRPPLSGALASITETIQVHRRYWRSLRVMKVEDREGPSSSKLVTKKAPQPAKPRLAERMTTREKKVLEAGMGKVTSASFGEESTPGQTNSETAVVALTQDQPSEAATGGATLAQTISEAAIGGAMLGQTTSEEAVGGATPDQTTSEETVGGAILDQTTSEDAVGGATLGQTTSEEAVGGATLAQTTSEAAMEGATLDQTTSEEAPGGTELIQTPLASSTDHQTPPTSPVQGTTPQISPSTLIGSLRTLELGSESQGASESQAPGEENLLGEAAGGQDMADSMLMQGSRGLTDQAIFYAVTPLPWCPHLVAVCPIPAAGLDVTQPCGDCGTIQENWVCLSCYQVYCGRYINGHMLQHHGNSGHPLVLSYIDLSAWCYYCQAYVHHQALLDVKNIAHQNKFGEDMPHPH
Assay type: biochemical
Summary of the method: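 Sf-9-derived GST-purified full-length HDAC6 + cpd, 60 min RT, 24 mM Tris pH 7.5/0.6 mM glutathione/0.01% Tween-20; add HDAC-Glo substrate-developer, 20 min RT; luminescence. No-enzyme = 100% inhibition.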

inhibition at 10 µM | SMILES
100% | O=C1OCCCN1[C@@H]1CCCC[C@H]1N1Cc2ccc(-c3nnc(C(F)F)o3)cc2C1=O [Example 21, 6-(5-(difluoromethyl)-1,3,4-oxadiazol-2-yl)-2-((1R,2R)-2-(2-oxo-1,3-oxazinan-3-yl)cyclohexyl)isoindolin-1-one]
98% | O=C1OCCN1[C@@H]1CCCC[C@H]1N1Cc2ccc(-c3nnc(C(F)F)o3)cc2C1=O [Example 22, 6-(5-(difluoromethyl)-1,3,4-oxadiazol-2-yl)-2-((1R,2R)-2-(2-oxo-1,3-oxazolidin-3-yl)cyclohexyl)isoindolin-1-one]
99% | O=C1c2cc(-c3nnc(C(F)F)o3)ccc2CN1[C@@H]1CCCC[C@H]1NC(=O)C1(C(F)F)CC1 [Example 23, 1-(difluoromethyl)-N-((1R,2R)-2-(6-(5-(difluoromethyl)-1,3,4-oxadiazol-2-yl)-1-oxo-1,3-dihydro-2H-isoindol-2-yl)cyclohexyl)cyclopropanecarboxamide]
98% | O=C1c2cc(-c3nnc(C(F)F)o3)ccc2CN1[C@@H]1CCCC[C@H]1NC(=O)C1(C(F)(F)F)CCC1 [Example 24, N-((1R,2R)-2-(6-(5-(difluoromethyl)-1,3,4-oxadiazol-2-yl)-1-oxo-1,3-dihydro-2H-isoindol-2-yl)cyclohexyl)-1-(trifluoromethyl)cyclobutanecarboxamide]
99% | COC1(C(=O)N[C@@H]2CCCC[C@H]2N2Cc3ccc(-c4nnc(C(F)F)o4)cc3C2=O)CCC1 [Example 25, N-((1R,2R)-2-(6-(5-(difluoromethyl)-1,3,4-oxadiazol-2-yl)-1-oxo-1,3-dihydro-2H-isoindol-2-yl)cyclohexyl)-1-methoxycyclobutanecarboxamide]
98% | O=C(CC1(O)CCCC1)N[C@@H]1CCCC[C@H]1N1Cc2ccc(-c3nnc(C(F)F)o3)cc2C1=O [Example 26, N-((1R,2R)-2-(6-(5-(difluoromethyl)-1,3,4-oxadiazol-2-yl)-1-oxo-1,3-dihydro-2H-isoindol-2-yl)cyclohexyl)-2-(1-hydroxycyclopentyl)acetamide]
100% | O=C(N[C@@H]1CCCC[C@H]1N1Cc2ccc(-c3nnc(C(F)F)o3)cc2C1=O)c1cocn1 [Example 27, N-((1R,2R)-2-(6-(5-(difluoromethyl)-1,3,4-oxadiazol-2-yl)-1-oxo-1,3-dihydro-2H-isoindol-2-yl)cyclohexyl)-1,3-oxazole-4-carboxamide]
100% | O=C(N[C@@H]1CCCC[C@H]1N1Cc2ccc(-c3nnc(C(F)F)o3)cc2C1=O)C(F)F [Example 28, N-((1R,2R)-2-(6-(5-(difluoromethyl)-1,3,4-oxadiazol-2-yl)-1-oxo-1,3-dihydro-2H-isoindol-2-yl)cyclohexyl)-2,2-difluoroacetamide]
101% | O=C1c2cc(-c3nnc(C(F)F)o3)ccc2CN1[C@@H]1CCCC[C@H]1NC(=O)C(F)(F)C(F)(F)F [Example 29, N-((1R,2R)-2-(6-(5-(difluoromethyl)-1,3,4-oxadiazol-2-yl)-1-oxo-1,3-dihydro-2H-isoindol-2-yl)cyclohexyl)-2,2,3,3,3-pentafluoropropanamide]
97% | O=C1COCCN1[C@@H]1CCCC[C@H]1N1Cc2ccc(-c3nnc(C(F)F)o3)cc2C1=O [Example 30, 6-(5-(difluoromethyl)-1,3,4-oxadiazol-2-yl)-2-((1R,2R)-2-(3-oxomorpholin-4-yl)cyclohexyl) isoindolin-1-one]
97% | O=C1NCCCN1[C@@H]1CCCC[C@H]1N1Cc2ccc(-c3nnc(C(F)F)o3)cc2C1=O [Example 31, 6-(5-(difluoromethyl)-1,3,4-oxadiazol-2-yl)-2-((1R,2R)-2-(2-oxotetrahydropyrimidin-1(2H)-yl)cyclohexyl) isoindolin-1-one]
101% | O=C1c2cc(-c3nnc(C(F)F)o3)ccc2CN1[C@@H]1CCCC[C@H]1NC(=O)C1(C(F)(F)F)CC1 [Example 32, N-((1R,2R)-2-(6-(5-(difluoromethyl)-1,3,4-oxadiazol-2-yl)-1-oxo-1,3-dihydro-2H-isoindol-2-yl)cyclohexyl)-1-(trifluoromethyl)cyclopropanecarboxamide]
97% | O=C(N[C@@H]1CCCC[C@H]1N1Cc2ccc(-c3nnc(C(F)F)o3)cc2C1=O)C1CC(F)(F)C1 [Example 33, N-((1R,2R)-2-(6-(5-(difluoromethyl)-1,3,4-oxadiazol-2-yl)-1-oxo-1,3-dihydro-2H-isoindol-2-yl)cyclohexyl)-3,3-difluorocyclobutanecarboxamide]
98% | CC(C)(C)OC(=O)N1CCCC[C@@H]1CN1Cc2ccc(-c3nnc(C(F)F)o3)cc2C1=O [Example 34, tert-butyl (2R)-2-((6-(5-(difluoromethyl)-1,3,4-oxadiazol-2-yl)-1-oxo-1,3-dihydro-2H-isoindol-2-yl)methyl)piperidine-1-carboxylate]
97% | CC(C)(C)OC(=O)N1CCOC[C@@H]1CN1Cc2ccc(-c3nnc(C(F)F)o3)cc2C1=O [Example 35, tert-butyl (3S)-3-((6-(5-(difluoromethyl)-1,3,4-oxadiazol-2-yl)-1-oxo-1,3-dihydro-2H-isoindol-2-yl)methyl)morpholine-4-carboxylate]
85% | O=C1c2cc(-c3nnc(C(F)F)o3)ccc2CN1C[C@H]1COCCN1 [Example 36, 6-(5-(difluoromethyl)-1,3,4-oxadiazol-2-yl)-2-((3S)-morpholin-3-ylmethyl)isoindolin-1-one]
99% | O=C1CCCN1c1ccccc1N1Cc2ccc(-c3nnc(C(F)F)o3)cc2C1=O [Example 37, 6-(5-(difluoromethyl)-1,3,4-oxadiazol-2-yl)-2-(2-(2-oxopyrrolidin-1-yl)phenyl)isoindolin-1-one]
91% | N[C@@H]1CCCC[C@H]1N1Cc2ccc(-c3nnc(C(F)F)o3)cc2C1=O [Example 38, 2-((1R,2R)-2-aminocyclohexyl)-6-(5-(difluoromethyl)-1,3,4-oxadiazol-2-yl)isoindolin-1-one]
96% | CCCCC(=O)N[C@@H]1CCCC[C@H]1N1Cc2ccc(-c3nnc(C(F)F)o3)cc2C1=O [Example 39, N-((1R,2R)-2-(6-(5-(difluoromethyl)-1,3,4-oxadiazol-2-yl)-1-oxo-1,3-dihydro-2H-isoindol-2-yl)cyclohexyl)pentanamide]
100% | CC(F)(F)C(=O)N[C@@H]1CCCC[C@H]1N1Cc2ccc(-c3nnc(C(F)F)o3)cc2C1=O [Example 40, N-((1R,2R)-2-(6-(5-(difluoromethyl)-1,3,4-oxadiazol-2-yl)-1-oxo-1,3-dihydro-2H-isoindol-2-yl)cyclohexyl)-2,2-difluoropropanamide]
98% | O=C1c2cc(-c3nnc(C(F)F)o3)ccc2CN1C[C@H]1CCCCN1S(=O)(=O)C1CC1 [Example 41, 2-(((2R)-1-(cyclopropylsulfonyl)piperidin-2-yl)methyl)-6-(5-(difluoromethyl)-1,3,4-oxadiazol-2-yl)isoindolin-1-one]
98% | O=C1c2cc(-c3nnc(C(F)F)o3)ccc2CN1C[C@H]1CCCCN1C(=O)C1CC1 [Example 42, 2-(((2R)-1-(cyclopropylcarbonyl)piperidin-2-yl)methyl)-6-(5-(difluoromethyl)-1,3,4-oxadiazol-2-yl)isoindolin-1-one]
